This note sets out measurements from PubChem BioAssay (NCI).

Test systems include IGROV1 ovarian; MOLT-4 leukemia; SK-MEL-2 melanoma; HCT-15 colon; NCI/ADR-RES ovarian; SF-295 CNS; SK-MEL-28 melanoma; SN12C renal; SR leukemia; OVCAR-3 ovarian.
What all share (assay): growth of human tumour cells (NCI), 48 h

Molecules are shown by their SMILES.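 Where inhibition never reached the appropriate level, the endpoint shown equals the highest concentration tested. Otherwise, values were interpolated linearly from a five-concentration, 48-hour dose response in 96-well plates. GI50 marks 50% less growth. TGI is the concentration that stops growth completely.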

As to `COc1cc(C2CC(=O)Nc3c2cc(Br)c2ccccc32)cc(Br)c1OC` (stereo not given), the GI50 with IGROV1 ovarian is 2.61 µM; in the assay with MOLT-4 leukemia, 2.78 µM; in the assay on SK-MEL-2 melanoma, 3.67 µM; with HCT-15 colon it was 0.907 µM; with NCI/ADR-RES ovarian, 0.398 µM; in the assay with SF-295 CNS, 1.47 µM. In addition, the GI50 with SK-MEL-28 melanoma was 2.98 µM; in the assay on SN12C renal, 2.54 µM; in the assay on SR leukemia, 0.416 µM; in the assay on OVCAR-3 ovarian, 1.14 µM. The TGI with IGROV1 ovarian is > 63.9 µM; in the assay on MOLT-4 leukemia it was > 47.6 µM; in the assay with SK-MEL-2 melanoma, 27.2 µM; with HCT-15 colon, > 100 µM; in the assay with NCI/ADR-RES ovarian it was 2.63 µM; in the assay with SF-295 CNS, 5.4 µM. Also, the TGI is > 100 µM in the assay on SK-MEL-28 melanoma, > 100 µM in the assay with SN12C renal, 1.77 µM with SR leukemia and 2.52 µM in the assay on OVCAR-3 ovarian.

On to `NC(=O)c1cccc(-c2cc(C(N)=O)ccc2Cl)c1`, for which the GI50 in the assay on IGROV1 ovarian is 4.21 µM; with MOLT-4 leukemia, 2.22 µM; in the assay on SK-MEL-2 melanoma, 5.21 µM; with HCT-15 colon, 0.846 µM; in the assay with NCI/ADR-RES ovarian it was 1.51 µM; in the assay on SF-295 CNS, 2.41 µM. The GI50 with SK-MEL-28 melanoma is 7.17 µM; in the assay on SN12C renal, 4.85 µM; with SR leukemia it was 0.389 µM; with OVCAR-3 ovarian, 2.36 µM. Besides, the TGI was > 100 µM in the assay on IGROV1 ovarian; 95.7 µM in the assay with MOLT-4 leukemia; > 100 µM with SK-MEL-2 melanoma; > 100 µM in the assay with HCT-15 colon; 25.9 µM with NCI/ADR-RES ovarian; 21.2 µM with SF-295 CNS. In addition, the TGI in the assay on SK-MEL-28 melanoma is > 100 µM; in the assay on SN12C renal, 88.3 µM; with SR leukemia, 18.3 µM; in the assay on OVCAR-3 ovarian, 37.5 µM.

As to `CCOC(=O)C1=C(C)N2C(=NC3=C(CCC/C3=C\c3ccc(Cl)cc3)C2c2ccc(Cl)cc2)S1` (stereo not given), the GI50 with IGROV1 ovarian was 3.11 µM; in the assay on MOLT-4 leukemia, 3.06 µM; with SK-MEL-2 melanoma it was 19 µM; in the assay with HCT-15 colon, 2.15 µM; in the assay with NCI/ADR-RES ovarian it was 2.56 µM; in the assay with SF-295 CNS, 2.85 µM. The GI50 in the assay on SK-MEL-28 melanoma was 3.07 µM; in the assay with SN12C renal, 3.55 µM; in the assay with SR leukemia it was 1.65 µM; with OVCAR-3 ovarian, 2.36 µM. The TGI with IGROV1 ovarian came to 10.1 µM; in the assay on MOLT-4 leukemia, 9.27 µM; in the assay with SK-MEL-2 melanoma, 62.1 µM; in the assay with HCT-15 colon it was 4.84 µM; in the assay on NCI/ADR-RES ovarian, 7.04 µM; in the assay with SF-295 CNS, 8.76 µM. Moreover, the TGI in the assay with SK-MEL-28 melanoma came to 11.4 µM; in the assay with SN12C renal it was 21.6 µM; with SR leukemia it was 3.95 µM; with OVCAR-3 ovarian, 5.61 µM.

Consider `C=CCCCOC1[C@H](OCc2ccccc2)C(OCc2ccccc2)C(OC)O[C@@H]1CNC(=O)c1cccc(I)c1` (stereo not given in full), for which the GI50 in the assay on IGROV1 ovarian was 17.7 µM; with MOLT-4 leukemia it was 1.9 µM; in the assay on SK-MEL-2 melanoma, 48.1 µM; with HCT-15 colon it was 3.55 µM; in the assay on NCI/ADR-RES ovarian, 5.26 µM; with SF-295 CNS, 4.14 µM. Further, the GI50 in the assay with SK-MEL-28 melanoma is 8.51 µM; in the assay on SN12C renal, 8.53 µM; with SR leukemia it was 2.9 µM; in the assay with OVCAR-3 ovarian, 6.46 µM. Further, the TGI in the assay with IGROV1 ovarian, with MOLT-4 leukemia, in the assay on SK-MEL-2 melanoma, in the assay on HCT-15 colon, in the assay with NCI/ADR-RES ovarian and in the assay with SF-295 CNS was > 100 µM throughout. In addition, the TGI in the assay on SK-MEL-28 melanoma was > 100 µM; with SN12C renal, > 100 µM; with SR leukemia it was 14.6 µM; in the assay on OVCAR-3 ovarian, > 100 µM.

`O=C1CSC(c2ccccc2O)N1c1nnc(Cn2ccnc2)o1` (stereo not given): the GI50 in the assay with IGROV1 ovarian was 16 µM; in the assay with MOLT-4 leukemia, 5.23 µM; in the assay with SK-MEL-2 melanoma, 15.2 µM; with HCT-15 colon, 3.04 µM; in the assay with NCI/ADR-RES ovarian, 3.18 µM; in the assay on SF-295 CNS, 3.11 µM. Moreover, the GI50 is 13.8 µM in the assay on SK-MEL-28 melanoma, 12.8 µM in the assay with SN12C renal, 2.93 µM in the assay on SR leukemia and 3.04 µM with OVCAR-3 ovarian. Besides, the TGI with IGROV1 ovarian was 37 µM; in the assay with MOLT-4 leukemia, > 100 µM; in the assay with SK-MEL-2 melanoma, 36.4 µM; in the assay on HCT-15 colon, > 100 µM; in the assay on NCI/ADR-RES ovarian, 29.6 µM; with SF-295 CNS, > 100 µM. Moreover, the TGI with SK-MEL-28 melanoma was 41.2 µM; in the assay with SN12C renal, > 100 µM; with SR leukemia, > 100 µM; in the assay on OVCAR-3 ovarian, 16.4 µM.

Regarding `Oc1c(Cl)cc(Cl)c2cccnc12`, the GI50 with IGROV1 ovarian was 3.72 µM; with MOLT-4 leukemia, 3.41 µM; with SK-MEL-2 melanoma, 3.83 µM; with HCT-15 colon it was 4.73 µM; with NCI/ADR-RES ovarian it was 3.3 µM; in the assay with SF-295 CNS, 1.96 µM. Moreover, the GI50 was 3.96 µM in the assay with SK-MEL-28 melanoma, 3.39 µM in the assay on SN12C renal, 2.68 µM in the assay on SR leukemia and 3.17 µM with OVCAR-3 ovarian. In addition, the TGI with IGROV1 ovarian was 18.8 µM; with MOLT-4 leukemia it was 17.8 µM; in the assay on SK-MEL-2 melanoma it was 11.5 µM; with HCT-15 colon, 25.9 µM; with NCI/ADR-RES ovarian, > 100 µM; with SF-295 CNS, > 100 µM. For the same compound, the TGI in the assay with SK-MEL-28 melanoma was determined as 29.4 µM; with SN12C renal it was 51.8 µM; in the assay with SR leukemia, 9.48 µM; in the assay on OVCAR-3 ovarian, 11.6 µM.

`O=C1CCC(N2C(=O)c3cccc(NCCCC4CCN(CCNC(=O)c5cc6c(o5)C(=O)c5ccccc5C6=O)CC4)c3C2=O)C(=O)N1` (stereo not given): the GI50 with IGROV1 ovarian was 0.576 µM; in the assay with MOLT-4 leukemia, 1.93 µM; in the assay with SK-MEL-2 melanoma it was 1.27 µM; in the assay on HCT-15 colon, 0.825 µM; in the assay on NCI/ADR-RES ovarian, 2.89 µM; in the assay on SF-295 CNS it was 0.252 µM. The GI50 in the assay on SK-MEL-28 melanoma is 1.88 µM; in the assay with SN12C renal it was 0.252 µM; with SR leukemia, 0.106 µM; in the assay on OVCAR-3 ovarian, 0.218 µM. The TGI came out at 2.3 µM in the assay with IGROV1 ovarian; 13.8 µM in the assay with MOLT-4 leukemia; 3.6 µM in the assay with SK-MEL-2 melanoma; 2.41 µM with HCT-15 colon; 14.7 µM in the assay on NCI/ADR-RES ovarian; 0.711 µM in the assay on SF-295 CNS. Besides, the TGI was 4.57 µM in the assay on SK-MEL-28 melanoma, 0.806 µM in the assay on SN12C renal, > 30.1 µM in the assay on SR leukemia and 0.761 µM in the assay on OVCAR-3 ovarian.
